Drawing on ChEMBL document CHEMBL3301361, “Experimental in vitro DMPK and physicochemical data on a set of publicly disclosed compounds”, this text covers hepatocyte CLint, logD and microsomal CLint for 36 compounds.

The nature of data set [1]: in vitro. As to conditions: hepatocytes.
The nature of another data set: physchem. As to conditions: octan-1-ol/water, pH 7.4, LogD7.4.
Data set [2] is described as follows: in vitro. As to conditions: human.

Compound `CCOc1nc2cccc(C(=O)O)c2n1Cc1ccc(-c2ccccc2-c2nnn[nH]2)cc1` showed a hepatocyte CLint in “in vitro [1]” of less than 3 µL/min/1e6 cells. The logD in “physchem” is 0.3. The microsomal CLint in “in vitro [2]” (liver microsomes) is less than 3 µL/min/mg.
The like results for `Cc1c2c(=O)n(-c3ccccc3Cl)[nH]c2cc(=O)n1Cc1ccccn1` were, in that order, less than 3 µL/min/1e6 cells, 0.2 and less than 3 µL/min/mg.
The corresponding values for `CNS(=O)(=O)Cc1ccc2[nH]cc(CCN(C)C)c2c1` are 8 µL/min/1e6 cells, -0.96 and less than 3 µL/min/mg.
The corresponding values for `CCc1c(C)nc(SCC(=O)Nc2nc(-c3ccc(OC)cc3)cs2)nc1O` are 66.1 µL/min/1e6 cells, 3.78 and 66.1 µL/min/mg.
In “in vitro [1]”, `COc1cc(-c2ccc(Nc3ccccc3C(=O)O)c(OC)c2)ccc1Nc1ccccc1C(=O)O` gave a hepatocyte CLint of 31.6 µL/min/1e6 cells. The compound further yielded a logD in the data set “physchem” of 1.8. Further, the microsomal CLint in the data set “in vitro [2]” (liver microsomes) came out at 6.61 µL/min/mg.
Turning to `c1csc(Cn2nnnc2CN2CCN(c3nc4ccccc4s3)CC2)c1`, the hepatocyte CLint in the data set “in vitro [1]” was greater than 150 µL/min/1e6 cells. The logD in the data set “physchem” came out at 3.65. The compound also returned a microsomal CLint in the data set “in vitro [2]” (liver microsomes) of 99 µL/min/mg.
`Cc1cc(C)nc(SCC(=O)Nc2cc(C)on2)n1` came in with a hepatocyte CLint in “in vitro [1]” of 141 µL/min/1e6 cells. Further, the logD in the data set “physchem” is 1.52. The compound also gave a microsomal CLint in “in vitro [2]” (liver microsomes) greater than 150 µL/min/mg.
`Cc1nc2ncnn2c(O)c1CCOC(=O)c1c(F)cccc1F` yielded a hepatocyte CLint in the data set “in vitro [1]” of 64.3 µL/min/1e6 cells. Further, the logD in the data set “physchem” was found to be 0.16. Also, the microsomal CLint in the data set “in vitro [2]” (liver microsomes) was greater than 150 µL/min/mg.
The like results for `CN(CCNC[C@H](O)c1ccc(O)c2[nH]c(=O)sc12)C(=O)CCOCCc1ccccc1` were, in that order, 43 µL/min/1e6 cells, 1.21 and 35 µL/min/mg.
The corresponding values for `CCOc1ccc(CCNCCCSCCNC[C@H](O)c2ccc(O)c3[nH]c(=O)sc23)cc1` are 8 µL/min/1e6 cells, 0.41 and 75 µL/min/mg.
The corresponding values for `O=c1[nH]c2c(O)ccc([C@@H](O)CNCCSCCCNCCc3cccc(C(F)(F)F)c3)c2s1` are 6 µL/min/1e6 cells, 1.21 and 13 µL/min/mg.
In turn, `Cc1nc2ncnn2c(O)c1CCOC(=O)c1ccccc1F` came in with a hepatocyte CLint in “in vitro [1]” of 129 µL/min/1e6 cells. This compound also displayed a logD in “physchem” of 0.99. The microsomal CLint in “in vitro [2]” (liver microsomes) is greater than 150 µL/min/mg.
The corresponding values for `CCC(CC)NC(=O)c1cnn(-c2ccccc2Cl)c1NS(=O)(=O)c1ccc(C)cc1` are 56 µL/min/1e6 cells, 0.65 and 72 µL/min/mg.
Regarding `CCC(CC)NC(=O)c1cnn(C)c1NS(=O)(=O)c1ccc(C)cc1`, the hepatocyte CLint in “in vitro [1]” was 27 µL/min/1e6 cells. Also, the logD in “physchem” worked out at 0.36. The same compound came in with a microsomal CLint in the data set “in vitro [2]” (liver microsomes) of 13 µL/min/mg.
The like results for `CCC(CC)NC(=O)c1cnn(-c2ccccc2)c1NS(=O)(=O)c1ccc(-c2cnco2)cc1` were, in that order, 52 µL/min/1e6 cells, 0.8 and 27 µL/min/mg.
The corresponding values for `Cc1ccc(S(=O)(=O)Nc2c(C(=O)N(C)C3CCCCC3)c(C)nn2-c2ccccc2)cc1` are 21 µL/min/1e6 cells, 1.69 and 53 µL/min/mg.
The like results for `Cc1ccc(S(=O)(=O)Nc2c(C(=O)NC3CCCCC3C)cnn2-c2ccccc2)cc1` (stereo not drawn) were, in that order, 5 µL/min/1e6 cells, 1.34 and 59 µL/min/mg.
In “in vitro [1]”, `Cc1nn(-c2ccc(F)cc2)c(NS(=O)(=O)c2cccnc2)c1C(=O)N[C@@H](C)C(C)(C)C` registered a hepatocyte CLint of 12 µL/min/1e6 cells. This compound also displayed a logD in the data set “physchem” of 0.4. Moreover, the microsomal CLint in the data set “in vitro [2]” (liver microsomes) was less than 3 µL/min/mg.
For the compound `O=c1[nH]c2c(O)ccc([C@@H](O)CNCCc3ccc(CNCCc4ccccc4F)cc3)c2s1`, the intrinsic clearance (hepatocyte CLint) in “in vitro [1]” was found to be 14 µL/min/1e6 cells. The logD in “physchem” was determined as 1.3. The same compound showed a microsomal CLint in “in vitro [2]” (microsomes) of 22 µL/min/mg.
`Cc1cccc2c(CCNCc3cccc(CCNC[C@H](O)c4ccc(O)c5[nH]c(=O)sc45)c3)c[nH]c12` yielded a hepatocyte CLint in “in vitro [1]” of 24 µL/min/1e6 cells. The same compound registered a log distribution coefficient (logD) in the data set “physchem” of 1.13. Also, in “in vitro [2]” (liver microsomes), the microsomal CLint amounted to 16 µL/min/mg.
With `O=c1[nH]c2c(O)ccc([C@@H](O)CNCCc3ccccc3CNCCc3ccccc3F)c2s1`, the hepatocyte CLint in “in vitro [1]” is 107 µL/min/1e6 cells. In “physchem”, this compound showed a logD of 1.58. In “in vitro [2]” (microsomes), this compound displayed a microsomal CLint of 27.5 µL/min/mg.
For `O=c1[nH]c2c(O)ccc([C@@H](O)CNCCc3cccc(CNCCCc4ccccc4)c3)c2s1`, the hepatocyte CLint in “in vitro [1]” was 19 µL/min/1e6 cells. Besides, the logD in “physchem” turned out to be 1.11. Also, in the data set “in vitro [2]” (liver microsomes), the microsomal CLint turned out to be 9 µL/min/mg.
Compound `COc1ccc(CNCc2cccc(CCNC[C@H](O)c3ccc(O)c4[nH]c(=O)sc34)c2)cc1` gave an intrinsic clearance (hepatocyte CLint) in the data set “in vitro [1]” of 13 µL/min/1e6 cells. In the data set “physchem”, this compound displayed a pH-dependent lipophilicity (logD) of 0.86. In the data set “in vitro [2]” (liver microsomes), this compound gave a microsomal CLint of 62 µL/min/mg.
The like results for `COc1ccccc1CN(C)Cc1cccc(CCNC[C@H](O)c2ccc(O)c3[nH]c(=O)sc23)c1` were, in that order, 33 µL/min/1e6 cells, 1.52 and 45 µL/min/mg.
For the compound `O=C(Nc1cccc(-c2nnn[nH]2)c1)c1cc(C(F)(F)F)cc2[nH]cnc12`, the intrinsic metabolic clearance (hepatocyte CLint) in “in vitro [1]” worked out at 17.4 µL/min/1e6 cells. In “physchem”, this compound came in with a logD of 1.1. For the same compound, in the data set “in vitro [2]” (liver microsomes), the microsomal CLint was 4.47 µL/min/mg.
The like results for `N[C@@H]1CCCN(c2c(/C=C3\SC(=O)NC3=O)cccc2-c2ccncc2)C1` were, in that order, 8.91 µL/min/1e6 cells, 1.56 and 8.51 µL/min/mg.
Consider `COc1ccc2nc(C)cc(OCC(=O)Nc3ccccc3OC)c2c1`, for which the hepatocyte CLint in “in vitro [1]” was greater than 150 µL/min/1e6 cells. For the same compound, the logD in the data set “physchem” is 3.9. In the data set “in vitro [2]” (microsomes), this compound returned a microsomal CLint of 138 µL/min/mg.
For `CCn1c(C)c(C(=O)O)c(-c2cccc(N3CCN(c4ccc(NS(=O)(=O)c5ccc(N[C@H](CCN6CCC(O)CC6)CSc6ccccc6)c(S(=O)(=O)C(F)(F)F)c5)cc4)CC3)c2)c1-c1ccc(Cl)cc1`, in the data set “in vitro [1]”, the intrinsic metabolic clearance (hepatocyte CLint) is 17.4 µL/min/1e6 cells. Further, the logD in “physchem” was found to be 4.2. In addition, the microsomal CLint in “in vitro [2]” (liver microsomes) was determined as 15.1 µL/min/mg.
In turn, `O=C(O)COc1ccc(C(=O)c2cccs2)c(Cl)c1Cl` returned a hepatocyte CLint in the data set “in vitro [1]” of 61 µL/min/1e6 cells. In “physchem”, the logD was -0.84. Moreover, the microsomal CLint in “in vitro [2]” (microsomes) came to 82 µL/min/mg.
Consider `O=C(O)[C@H](Cc1ccccc1)N1CCC(CN2CCC(Oc3ccc(CO)c(Cl)c3)CC2)CC1`, for which, in the data set “in vitro [1]”, the hepatocyte CLint is 28 µL/min/1e6 cells. This compound yielded a logD in the data set “physchem” of 0.8. The same compound returned a microsomal CLint in “in vitro [2]” (liver microsomes) of less than 3 µL/min/mg.
The like results for `COc1ccc(Cc2c(N)n[nH]c2N)cc1` were, in that order, 3.63 µL/min/1e6 cells, 0.2 and 5.37 µL/min/mg.
The corresponding values for `O=C(Nc1cccc(CCO)c1)c1cc2cc(Cl)ccc2[nH]1` are greater than 150 µL/min/1e6 cells, 3.83 and 10 µL/min/mg.
As for `O=C(NCC12CC3CC(CC(C3)C1)C2)c1ccnc(NCC2CCNCC2)c1Cl`, the hepatocyte CLint in “in vitro [1]” was found to be 4 µL/min/1e6 cells. The compound also gave a logD in the data set “physchem” of 0.6. In addition, the microsomal CLint in the data set “in vitro [2]” (microsomes) came out at 68 µL/min/mg.
The like results for `COc1c(Nc2ccc(S(C)(=O)=O)nc2C)ncnc1OC1CCN(C(=O)OC(C)C)CC1` [ADP-597] were, in that order, 6.31 µL/min/1e6 cells, 2.4 and 19.9 µL/min/mg.
For `O=C(Nc1c[nH]nc1-c1nc2cc(CN3CCOCC3)ccc2[nH]1)NC1CC1` [AT-9283], the hepatocyte CLint in the data set “in vitro [1]” is less than 3 µL/min/1e6 cells. In the data set “physchem”, this compound came in with a logD of 2.3. In “in vitro [2]” (liver microsomes), this compound registered a microsomal CLint of 8.32 µL/min/mg.
The like results for `COCC1=C(C(=O)OC(C)OC(=O)OC(C)C)N2C(=O)[C@@H](NC(=O)/C(=N\OC)c3csc(N)n3)[C@H]2SC1` (stereo partly drawn) [CEFPODOXIME PROXETIL] were, in that order, 115 µL/min/1e6 cells, 1.7 and greater than 150 µL/min/mg.
